IC50 data for eleven molecules are collected here from EP0416393A1, “Peptidyl difluorodiol renin inhibitors” (ABBOTT LABORATORIES, priority 1989, dated 1991).

This assay concerns the target T1, human renal renin (Homo sapiens, UniProt P00797).
T1 construct: human renal renin, free from acid proteolytic activity; from tissue; host or cells: human kidney (concluded from the word 'renal')
T1 sequence (P00797 67-406): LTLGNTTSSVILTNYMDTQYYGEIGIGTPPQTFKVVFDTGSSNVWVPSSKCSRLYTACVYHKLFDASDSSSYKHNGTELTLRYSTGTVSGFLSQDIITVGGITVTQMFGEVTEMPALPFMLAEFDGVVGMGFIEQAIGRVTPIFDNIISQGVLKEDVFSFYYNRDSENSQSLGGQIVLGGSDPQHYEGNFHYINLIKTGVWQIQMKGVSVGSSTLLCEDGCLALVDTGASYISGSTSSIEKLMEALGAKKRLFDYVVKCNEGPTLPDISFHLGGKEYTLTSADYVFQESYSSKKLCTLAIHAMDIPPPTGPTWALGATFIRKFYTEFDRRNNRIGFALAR
Put plainly: Inhibition of human renal renin with human angiotensinogen substrate; angiotensin I formed measured by radioimmunoassay. The assay is classed as biochemical. The following applies: 37 degrees C, pH 6.0; read-out: IC₅₀. The method, then:
At the end of the incubation, the amount of angiotensin I formed is measured by radioimmunoassay and the molar concentration required to cause 50% inhibition, expressed as the IC₅₀ is calculated. […]
In the case of “Cbz((β,β-di-Me)-β-Ala)-Phe-His amide of 2(S)-Amino-1-cyclohexyl-4,4-difluoro-3(R),5(R)-dihydroxy-6-methylheptane [Example 79]”, the IC50 came out at 1.1 nM.
In the case of `CC(C)[C@@H](O)C(F)(F)[C@H](O)[C@H](CC1CCCCC1)NC(=O)[C@H](Cc1c[nH]cn1)NC(=O)[C@@H](CC(=O)N1CCOCC1)Cc1ccccc1` [Example 83, 2(R)-2-Benzyl-3-Morpholinocarbonylpropionic acid amide of His-2(S)-Amino-1-cyclohexyl-4,4-difluoro-3(R),5(R)-dihydroxy-6-methylheptane], the IC50 turned out to be 1.5 nM.
For the molecule `CC(C)[C@@H](O)C(F)(F)[C@H](O)[C@H](CC1CCCCC1)NC(=O)[C@H](Cc1c[nH]cn1)NC(=O)[C@H](Cc1ccccc1)NC(=O)OC(C)(C)C` [Example 77, Boc-Phe-His-amide of 2(S)-Amino-1-cyclohexyl-4,4-difluoro-3(R),5(R)-dihydroxy-6-methylheptane], the IC50 stood at 1.2 nM.
Consider `CC(C)C[C@H](NC(=O)[C@H](Cc1ccccc1)NC(=O)OC(C)(C)C)C(=O)N[C@@H](CC1CCCCC1)[C@@H](O)C(F)(F)[C@H](O)C(C)C` [Example 60, Boc-Phe-Leu amide of 2(S)-Amino-1-cyclohexyl-4,4-difluoro-3(R),5(R)dihydroxy-6-methylheptane], for which the IC50 was determined as 0.64 nM.
For the molecule `CC(O)C(F)(F)C(O)C(CC1CCCCC1)NC(=O)C(Cc1c[nH]cn1)NC(=O)C(Cc1ccccc1)NC(=O)OC(C)(C)C` [Example 78, Boc-Phe-His amide of 2(S)-Amino-1-cyclohexyl-4,4-difluoro-3(R),5(R,S)-dihydroxyhexane], the IC50 turned out to be 2.5 nM.
Consider `CC(C)CC(NC(=O)C(Cc1ccccc1)NC(=O)OC(C)(C)C)C(=O)NC(CC1CCCCC1)C(O)C(F)(F)C(O)C(C)C` [Example 61, Boc-Phe-Leu amide of 2(S)-Amino-1-cyclohexyl-4,4-difluoro-3(R),5(S)-dihydroxy-6-methylheptane], for which the IC50 is 22 nM.
With `CC(C)[C@@H](O)C(F)(F)[C@H](O)[C@H](CC1CCCCC1)NC(=O)[C@H](Cc1cscn1)NC(=O)[C@@H](CC(=O)N1CCN(C)CC1)Cc1ccccc1` [Example 93, 2(R)-2-Benzyl-3(4-methylpiperazine-1-ylcarbonyl)propionic acid amide of L-(4-thiazolyl)alamine-2(S) amino-1-cyclohexyl-4,4-difluoro-3(R),5(R)-dihydroxy-6-methylheptane], the IC50 was found to be 1.5 nM.
Next, `CC(C)C(O)C(F)(F)C(O)C(CC1CCCCC1)NC(=O)C(Cc1c[nH]cn1)NC(=O)C(CC(=O)N1CCOCC1)Cc1cccc2ccccc12` [Example 86, 2(R,S)-(4-morpholinylcarbonylmethyl)-3-(1′-naphthyl)-propionic acid amide of His-2(S)-amino-1-cyclohexyl-4,4-difluoro-3(R),5(R)-dihydroxy-6-methylheptane]: 1.2 nM; `CC(C)CC(NC(=O)C(Cc1ccccc1)NC(=O)OC(C)(C)C)C(=O)NC(CC1CCCCC1)C(=O)C(F)(F)C(=O)C(C)C` [Example 98, Boc-Phe-Leu amide of 2(S)-Amino-1-cyclohexyl-4,4-difluoro-3,5-dioxo-6-methylheptane]: 0.69 nM; `CC(C)C(O)C(F)(F)C(O)C(CC1CCCCC1)NC(=O)C(Cc1c[nH]cn1)NC(=O)C(=Cc1ccccc1)CC(=O)N1CCOCC1` [Example 87, (E)-2-((4-Morpholinylcarbonyl)methyl)cinnamic acid amide of His-2(S)-amino-1-cyclohexyl-4,4-difluoro-3(R),5(R)-dihydroxy-6-methylheptane]: 5.2 nM.
`CC(C)[C@@H](O)C(F)(F)[C@H](O)[C@H](CC1CCCCC1)NC(=O)C(Cc1cnc[nH]1)NC(=O)C(Cc1ccc(O)cc1)N(C)C(=O)CC(C)(C)NC(=O)OCc1ccccc1` (stereo partly drawn) [Example 80, Cbz((β,β-di-Me)-β-Ala)-(Me)Tyr-His amide of 2(S)-Amino-1-cyclohexyl-4,4-difluoro-3(R),5(R)-dihydroxy-6-methylheptane]: the IC50 turned out to be 1 nM.
